Laboratory results published in patent publication US20050250801A1, “Method of treating cancer with azaspirane compositions” (priority 2003, published 2005).
pIC50: −log10 of the molar value. Read-outs that look alike come from different tables or passages of the source.

Legend:
Format in all cases: cell-based
[1] = system: CaCo-2 cells; assay: Inhibition of proliferation of CaCo-2 cells (WST-1, Example 8); conditions: Homo sapiens, 12 hours
Description: The effect of N,N,-diethyl-8,8-dipropyl-2-azaspiro[4,5]decane-2-propanamine dimaleate (Compound 1) and other analogs (structures shown in Table 7) on proliferation of CaCo-2, a human colon carcinoma cell line, were evaluated in the following manner. Cell proliferation was measured by WST-1 dye conversion to Formazan assay using a proliferation kit from BioVision, CA. The procedure used was essentially the same as described in the manufacture's instructions. Briefly, cells were grown for 7 days until they formed semi-confluent monolayers. On day 7, cells were trypsinized and re-suspended in 96-well plates at a concentration of approximately 50,000 cells/well. […] A solution of 10 μl of WST-1 dye per well was added and plates were read after 4 hours at 440 and 600 nm using an ELISA plate reader. The absorbance at 440-600 nm is directly proportion to the number of proliferating cells. All samples were measured in duplicate and results were expressed as an average of two determinations.

[2] = system: NCI-H522; assay: NCI in vitro SRB assay, Non-Small Cell Lung Cancer; conditions: for CC50 / GI50: Homo sapiens
Description: (§1) An in vitro assay which tested the ability of N,N,-diethyl-8,8-dipropyl-2-azaspiro[4,5]decane-2-propanamine dimaleate (Compound 1) to inhibit the growth of known cancer cell lines was performed by the National Cancer Institute in accordance with standard procedures. See: Lin, Z. X., Hoult, J. R., and Raman, A. Sulphorhodamine B assay for measuring proliferation of a pigmented melanocyte cell line and its application to the evaluation of crude drugs used in the treatment of vitiligo. J Ethnopharmacol. 66: 141-150, 1999. Briefly, selected tumor cell lines were cultured in media containing five different concentrations of Compound 1. After 48 hours of continuous exposure, a sulforhodamine B (SRB) assay was used to estimate cell viability or growth via optical measurements.
(§2) From the measurements, the following values were determined: 1) the concentration of Compound 1 at which a tumor cell growth inhibition of 50% (relative to control) occurs (GI50), 2) the concentration of Compound 1 at which no growth occurs (total growth inhibition, TGI), and 3) the concentration of Compound 1 at which the […] (LC 50). […] FIG. 6 illustrates, graphically, tumor cell growth as a function of Compound 1 concentration of the scanned tumor cell lines.

[3] = system: EKVX; assay: NCI in vitro SRB assay, Non-Small Cell Lung Cancer; conditions: for GI50: Homo sapiens
Description: as §1, §2

[4] = system: A549/ATCC; assay: NCI in vitro SRB assay, Non-Small Cell Lung Cancer; conditions: for CC50 / GI50: Homo sapiens
Description: as §1, §2

[5] = system: NCI-H460; assay: NCI in vitro SRB assay, Non-Small Cell Lung Cancer; conditions: for CC50 / GI50: Homo sapiens
Description: as §1, §2

[6] = system: HOP-92; assay: NCI in vitro SRB assay, Non-Small Cell Lung Cancer; conditions: for CC50 / GI50: Homo sapiens
Description: as §1, §2

[7] = system: NCI-H322M; assay: NCI in vitro SRB assay, Non-Small Cell Lung Cancer; conditions: for GI50 / CC50: Homo sapiens
Description: as §1, §2

[8] = NCI-H522, Log10 conc -4.0 Moles/L
[9] = NCI-H522, Log10 conc -5.0 Moles/L
[10] = NCI-H522, Log10 conc -6.0 Moles/L
[11] = NCI-H522, Log10 conc -7.0 Moles/L
[12] = NCI-H522, Log10 conc -8.0 Moles/L
[13] = read-out: Log10 GI50 (converted)
[14] = A549/ATCC, Log10 conc -4.0 Moles/L
[15] = A549/ATCC, Log10 conc -5.0 Moles/L
[16] = A549/ATCC, Log10 conc -6.0 Moles/L
[17] = A549/ATCC, Log10 conc -7.0 Moles/L
[18] = A549/ATCC, Log10 conc -8.0 Moles/L
[19] = NCI-H460, Log10 conc -4.0 Moles/L
[20] = NCI-H460, Log10 conc -5.0 Moles/L
[21] = NCI-H460, Log10 conc -6.0 Moles/L
[22] = NCI-H460, Log10 conc -7.0 Moles/L
[23] = NCI-H460, Log10 conc -8.0 Moles/L
[24] = HOP-92, Log10 conc -4.0 Moles/L
[25] = HOP-92, Log10 conc -5.0 Moles/L
[26] = HOP-92, Log10 conc -6.0 Moles/L
[27] = HOP-92, Log10 conc -7.0 Moles/L
[28] = HOP-92, Log10 conc -8.0 Moles/L

Compound: CCCC1(CCC)CCC2(CCN(CCCN(CC)CC)C2)CC1.O=C(O)/C=C\C(=O)O.O=C(O)/C=C\C(=O)O [Compound 1, N,N,-diethyl-8,8-dipropyl-2-azaspiro[4,5]decane-2-propanamine dimaleate]
- inhibition at 5 µM ([1]; 5 μM, read-out: % Inhibition of Proliferation at 5 μM Compound): 85%
- pIC50 [1]: ~5.60
- CC50 ([2]; NCI-H522, read-out: LC50): > 100000 nM
- CC50 ([2]; NCI-H522, read-out: Log10 LC50 (converted)): > 100000 nM
- GI50 ([2]; NCI-H522, read-out: GI50): 1180 nM
- GI50 ([2]; NCI-H522, read-out: Log10 GI50 (converted)): 1170 nM
- Log10 TGI ([2]; NCI-H522): −5.22
- TGI ([2]; NCI-H522): 6050 nM
- Mean Optical Densities [2, 8]: 0.099
- Percent Growth [2, 8]: −7%
- Mean Optical Densities [2, 9]: 0.091
- Percent Growth [2, 9]: −15%
- Mean Optical Densities [2, 10]: 0.347
- Percent Growth [2, 10]: 55%
- Mean Optical Densities [2, 11]: 0.531
- Percent Growth [2, 11]: 97%
- Mean Optical Densities [2, 12]: 0.518
- Percent Growth [2, 12]: 94%
- Log10 TGI [3]: −5.39
- TGI [3]: 4090 nM
- GI50 ([3]; read-out: GI50): 2110 nM
- GI50 [3, 13]: 2090 nM
- Mean Optical Densities ([3]; Log10 conc -4.0 Moles/L): 0.073
- Percent Growth ([3]; Log10 conc -4.0 Moles/L): −88%
- Mean Optical Densities ([3]; Log10 conc -5.0 Moles/L): 0.202
- Percent Growth ([3]; Log10 conc -5.0 Moles/L): −67%
- Mean Optical Densities ([3]; Log10 conc -6.0 Moles/L): 1.321
- Percent Growth ([3]; Log10 conc -6.0 Moles/L): 106%
- Mean Optical Densities ([3]; Log10 conc -7.0 Moles/L): 1.336
- Percent Growth ([3]; Log10 conc -7.0 Moles/L): 108%
- Mean Optical Densities ([3]; Log10 conc -8.0 Moles/L): 1.280
- Percent Growth ([3]; Log10 conc -8.0 Moles/L): 100%
- Log10 TGI ([4]; A549/ATCC): −5.48
- TGI ([4]; A549/ATCC): 3330 nM
- Mean Optical Densities [4, 14]: 0.056
- Percent Growth [4, 14]: −78%
- Mean Optical Densities [4, 15]: 0.070
- Percent Growth [4, 15]: −73%
- Mean Optical Densities [4, 16]: 1.126
- Percent Growth [4, 16]: 80%
- Mean Optical Densities [4, 17]: 1.307
- Percent Growth [4, 17]: 96%
- Mean Optical Densities [4, 18]: 1.277
- Percent Growth [4, 18]: 94%
- CC50 ([4]; A549, read-out: LC50): 7080 nM
- CC50 ([4]; A549, read-out: Log10 LC50 (converted)): 7080 nM
- GI50 ([4]; A549/ATCC, read-out: GI50): 1570 nM
- GI50 ([4]; A549/ATCC, read-out: Log10 GI50 (converted)): 1580 nM
- CC50 ([5]; NCI-H460, read-out: LC50): 5080 nM
- CC50 ([5]; NCI-H460, read-out: Log10 LC50 (converted)): 5130 nM
- GI50 ([5]; NCI-H460, read-out: GI50): 1310 nM
- GI50 ([5]; NCI-H460, read-out: Log10 GI50 (converted)): 1320 nM
- Log10 TGI ([5]; NCI-H460): −5.59
- TGI ([5]; NCI-H460): 2580 nM
- Mean Optical Densities [5, 19]: 0.015
- Percent Growth [5, 19]: −90%
- Mean Optical Densities [5, 20]: −0.001
- Percent Growth [5, 20]: −100%
- Mean Optical Densities [5, 21]: 1.075
- Percent Growth [5, 21]: 70%
- Mean Optical Densities [5, 22]: 1.278
- Percent Growth [5, 22]: 85%
- Mean Optical Densities [5, 23]: 1.403
- Percent Growth [5, 23]: 95%
- Log10 TGI ([6]; HOP-92): −5.41
- TGI ([6]; HOP-92): 3920 nM
- Mean Optical Densities [6, 24]: 0.106
- Percent Growth [6, 24]: −87%
- Mean Optical Densities [6, 25]: 0.542
- Percent Growth [6, 25]: −33%
- Mean Optical Densities [6, 26]: 1.227
- Percent Growth [6, 26]: 49%
- Mean Optical Densities [6, 27]: 1.412
- Percent Growth [6, 27]: 71%
- Mean Optical Densities [6, 28]: 1.529
- Percent Growth [6, 28]: 85%
- CC50 ([6]; HOP-92, read-out: LC50): 20300 nM
- CC50 ([6]; HOP-92, read-out: Log10 LC50 (converted)): 20400 nM
- GI50 ([6]; HOP-92, read-out: GI50): 897 nM
- GI50 ([6]; HOP-92, read-out: Log10 GI50 (converted)): 891 nM
- Log10 TGI [7]: −5.64
- TGI [7]: 2290 nM
- GI50 ([7]; read-out: GI50): 890 nM
- CC50 ([7]; read-out: LC50): 5410 nM
- GI50 [7, 13]: 891 nM
- CC50 ([7]; read-out: Log10 LC50 (converted)): 5370 nM
- Mean Optical Densities ([7]; Log10 conc -4.0 Moles/L): 0.115
- Percent Growth ([7]; Log10 conc -4.0 Moles/L): −84%
- Mean Optical Densities ([7]; Log10 conc -5.0 Moles/L): 0.100
- Percent Growth ([7]; Log10 conc -5.0 Moles/L): −86%
- Mean Optical Densities ([7]; Log10 conc -6.0 Moles/L): 0.855
- Percent Growth ([7]; Log10 conc -6.0 Moles/L): 48%
- Mean Optical Densities ([7]; Log10 conc -7.0 Moles/L): 0.979
- Percent Growth ([7]; Log10 conc -7.0 Moles/L): 86%
- Mean Optical Densities ([7]; Log10 conc -8.0 Moles/L): 0.991
- Percent Growth ([7]; Log10 conc -8.0 Moles/L): 89%
